Assay results as given in the supplement of paper PMC10307832.

Key:
Assay in all cases: relative viability (nuclei count vs DMSO), 5 days (fraction); higher = more cells survive
AZ505 + Phenformin = compound: C1CCC(CC1)N(CCNCCC2=C3C(=C(C=C2)O)NC(=O)CO3)C(=O)CCNCCC4=CC(=C(C=C4)Cl)Cl [AZ505] + N=C(N)NC(=N)NCCc1ccccc1 [Phenformin] (partner 250 µM)
Outline: (§1)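 One day after seeding in 1536-well plates, lung cancer cell lines were dosed by pin tool. Dosing was either single-drug or a fixed anchor-drug dose plus five library-drug doses (not always all listed) in √10 steps. After 5 days, nuclei were stained in one fix-and-stain step and counted on 4× images, and relative viability is the nuclei count of treated wells over that of vehicle wells, given as the median of duplicate plates.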

AZ505 + Decitabine = compound: C1CCC(CC1)N(CCNCCC2=C3C(=C(C=C2)O)NC(=O)CO3)C(=O)CCNCCC4=CC(=C(C=C4)Cl)Cl [AZ505] + Nc1ncn([C@H]2C[C@H](O)[C@@H](CO)O2)c(=O)n1 [Decitabine] (partner 2 µM)
Outline: as §1

Dactolisib + Navitoclax = compound: Cn1c(=O)n(-c2ccc(C(C)(C)C#N)cc2)c2c3cc(-c4cnc5ccccc5c4)ccc3ncc21 [Dactolisib] + CC1(C)CCC(c2ccc(Cl)cc2)=C(CN2CCN(c3ccc(C(=O)NS(=O)(=O)c4ccc(N[C@H](CCN5CCOCC5)CSc5ccccc5)c(S(=O)(=O)C(F)(F)F)c4)cc3)CC2)C1 [Navitoclax] (partner 0.5 µM)
Outline: as §1

AZ505 + Trametinib = compound: C1CCC(CC1)N(CCNCCC2=C3C(=C(C=C2)O)NC(=O)CO3)C(=O)CCNCCC4=CC(=C(C=C4)Cl)Cl [AZ505] + CC(=O)Nc1cccc(-n2c(=O)n(C3CC3)c(=O)c3c(Nc4ccc(I)cc4F)n(C)c(=O)c(C)c32)c1 [Trametinib] (partner 0.02 µM)
Outline: as §1

For ABC-1, the relative viability (AZ505 + Phenformin; first compound 0.08 µM) was 0.196, the relative viability (AZ505 + Phenformin; first compound 0.253 µM) was 0.211 and the relative viability (AZ505 + Phenformin; first compound 0.8 µM) was 0.242. The relative viability (AZ505 + Phenformin; first compound 2.53 µM) was 0.252, the relative viability (AZ505 + Phenformin; first compound 8 µM) was 0.219 and the relative viability (AZ505 + Decitabine; first compound 0.08 µM) was 1.07. The relative viability (AZ505 + Decitabine; first compound 0.8 µM) was 1.11, the relative viability (AZ505 + Decitabine; first compound 2.53 µM) was 0.938 and the relative viability (AZ505 + Decitabine; first compound 8 µM) was 1.04.
Cell Line NCI-H1299 has a relative viability (Dactolisib + Navitoclax; first compound 0.002 µM) of 1.06, a relative viability (Dactolisib + Navitoclax; first compound 0.006325 µM) of 1.1 and a relative viability (Dactolisib + Navitoclax; first compound 0.02 µM) of 1.08. It also gave a relative viability (Dactolisib + Navitoclax; first compound 0.06325 µM) of 0.986 and a relative viability (Dactolisib + Navitoclax; first compound 0.2 µM) of 1.03.
Cell Line EBC-1 has a relative viability (Dactolisib + Navitoclax; first compound 0.002 µM) of 0.408, a relative viability (Dactolisib + Navitoclax; first compound 0.006325 µM) of 0.417 and a relative viability (Dactolisib + Navitoclax; first compound 0.02 µM) of 0.212. For the same cell line, the relative viability (Dactolisib + Navitoclax; first compound 0.06325 µM) was 0.173 and the relative viability (Dactolisib + Navitoclax; first compound 0.2 µM) was 0.145.
NCI-H1648 showed a relative viability (AZ505 + Trametinib; first compound 0.253 µM) of 0.463, a relative viability (AZ505 + Trametinib; first compound 0.8 µM) of 0.528 and a relative viability (AZ505 + Trametinib; first compound 2.53 µM) of 0.576. It also gave a relative viability (AZ505 + Trametinib; first compound 8 µM) of 0.497, a relative viability (AZ505 + Decitabine; first compound 0.253 µM) of 0.508 and a relative viability (AZ505 + Decitabine; first compound 0.8 µM) of 0.538. For the same cell line, the relative viability (AZ505 + Decitabine; first compound 2.53 µM) was 0.615 and the relative viability (AZ505 + Decitabine; first compound 8 µM) was 0.522.
With NCI-H650 the relative viability (AZ505 + Phenformin; first compound 0.08 µM) was 0.443, the relative viability (AZ505 + Phenformin; first compound 0.253 µM) was 0.389 and the relative viability (AZ505 + Phenformin; first compound 0.8 µM) was 0.468. The relative viability (AZ505 + Phenformin; first compound 2.53 µM) was 0.509, the relative viability (AZ505 + Phenformin; first compound 8 µM) was 0.457 and the relative viability (AZ505 + Trametinib; first compound 0.08 µM) was 0.98. For the same cell line, the relative viability (AZ505 + Trametinib; first compound 0.253 µM) was 0.841, the relative viability (AZ505 + Trametinib; first compound 0.8 µM) was 0.924 and the relative viability (AZ505 + Trametinib; first compound 2.53 µM) was 0.893. For the same cell line, the relative viability (AZ505 + Trametinib; first compound 8 µM) was 1.15, the relative viability (AZ505 + Decitabine; first compound 0.08 µM) was 0.311 and the relative viability (AZ505 + Decitabine; first compound 0.253 µM) was 0.343. The relative viability (AZ505 + Decitabine; first compound 0.8 µM) was 0.301, the relative viability (AZ505 + Decitabine; first compound 2.53 µM) was 0.316 and the relative viability (AZ505 + Decitabine; first compound 8 µM) was 0.288.
Cell Line A549 has a relative viability (Dactolisib + Navitoclax; first compound 0.002 µM) of 1.29, a relative viability (Dactolisib + Navitoclax; first compound 0.006325 µM) of 1.05 and a relative viability (Dactolisib + Navitoclax; first compound 0.02 µM) of 0.706. The relative viability (Dactolisib + Navitoclax; first compound 0.06325 µM) was 0.248, the relative viability (Dactolisib + Navitoclax; first compound 0.2 µM) was 0.104 and the relative viability (AZ505 + Phenformin; first compound 0.08 µM) was 0.15. The relative viability (AZ505 + Phenformin; first compound 0.253 µM) was 0.19, the relative viability (AZ505 + Phenformin; first compound 0.8 µM) was 0.145 and the relative viability (AZ505 + Phenformin; first compound 2.53 µM) was 0.113. For the same cell line, the relative viability (AZ505 + Phenformin; first compound 8 µM) was 0.166, the relative viability (AZ505 + Decitabine; first compound 0.253 µM) was 0.264 and the relative viability (AZ505 + Decitabine; first compound 0.8 µM) was 0.295. It also gave a relative viability (AZ505 + Decitabine; first compound 2.53 µM) of 0.22 and a relative viability (AZ505 + Decitabine; first compound 8 µM) of 0.284.
NCI-H358 was tested, and the relative viability (AZ505 + Phenformin; first compound 0.08 µM) was 0.356, the relative viability (AZ505 + Phenformin; first compound 0.253 µM) was 0.346 and the relative viability (AZ505 + Phenformin; first compound 0.8 µM) was 0.351. For the same cell line, the relative viability (AZ505 + Phenformin; first compound 2.53 µM) was 0.24, the relative viability (AZ505 + Phenformin; first compound 8 µM) was 0.364 and the relative viability (AZ505 + Trametinib; first compound 0.08 µM) was 0.113. For the same cell line, the relative viability (AZ505 + Trametinib; first compound 0.253 µM) was 0.136, the relative viability (AZ505 + Trametinib; first compound 0.8 µM) was 0.112 and the relative viability (AZ505 + Trametinib; first compound 2.53 µM) was 0.119. For the same cell line, the relative viability (AZ505 + Trametinib; first compound 8 µM) was 0.13, the relative viability (AZ505 + Decitabine; first compound 0.08 µM) was 0.2 and the relative viability (AZ505 + Decitabine; first compound 0.253 µM) was 0.209. The relative viability (AZ505 + Decitabine; first compound 0.8 µM) was 0.194, the relative viability (AZ505 + Decitabine; first compound 2.53 µM) was 0.218 and the relative viability (AZ505 + Decitabine; first compound 8 µM) was 0.21.
In the case of NCI-H1563, the relative viability (AZ505 + Phenformin; first compound 0.08 µM) is reported as 0.626, the relative viability (AZ505 + Phenformin; first compound 0.253 µM) is reported as 0.646 and the relative viability (AZ505 + Phenformin; first compound 0.8 µM) is reported as 0.696. The relative viability (AZ505 + Phenformin; first compound 2.53 µM) was 0.664 and the relative viability (AZ505 + Phenformin; first compound 8 µM) was 0.666.
For NCI-H522, the relative viability (AZ505 + Phenformin; first compound 0.08 µM) was 0.526, the relative viability (AZ505 + Phenformin; first compound 0.253 µM) was 0.521 and the relative viability (AZ505 + Phenformin; first compound 0.8 µM) was 0.61. It also gave a relative viability (AZ505 + Phenformin; first compound 2.53 µM) of 0.732, a relative viability (AZ505 + Phenformin; first compound 8 µM) of 0.626 and a relative viability (AZ505 + Trametinib; first compound 0.08 µM) of 0.71. The relative viability (AZ505 + Trametinib; first compound 0.253 µM) was 0.726, the relative viability (AZ505 + Trametinib; first compound 0.8 µM) was 0.945 and the relative viability (AZ505 + Trametinib; first compound 2.53 µM) was 0.842. The relative viability (AZ505 + Trametinib; first compound 8 µM) was 0.8, the relative viability (AZ505 + Decitabine; first compound 0.08 µM) was 0.602 and the relative viability (AZ505 + Decitabine; first compound 0.253 µM) was 0.689. It also gave a relative viability (AZ505 + Decitabine; first compound 0.8 µM) of 0.657, a relative viability (AZ505 + Decitabine; first compound 2.53 µM) of 0.599 and a relative viability (AZ505 + Decitabine; first compound 8 µM) of 0.634.
In the case of IA-LM, the relative viability (Dactolisib + Navitoclax; first compound 0.002 µM) is reported as 0.819, the relative viability (Dactolisib + Navitoclax; first compound 0.006325 µM) is reported as 0.579 and the relative viability (Dactolisib + Navitoclax; first compound 0.02 µM) is reported as 0.564. The relative viability (Dactolisib + Navitoclax; first compound 0.06325 µM) was 0.116 and the relative viability (Dactolisib + Navitoclax; first compound 0.2 µM) was 0.0832.
In the case of NCI-H1703, the relative viability (Dactolisib + Navitoclax; first compound 0.002 µM) is reported as 0.875, the relative viability (Dactolisib + Navitoclax; first compound 0.006325 µM) is reported as 1.03 and the relative viability (Dactolisib + Navitoclax; first compound 0.02 µM) is reported as 0.684. For the same cell line, the relative viability (Dactolisib + Navitoclax; first compound 0.06325 µM) was 0.365 and the relative viability (Dactolisib + Navitoclax; first compound 0.2 µM) was 0.229.
In the case of LCLC-103H, the relative viability (AZ505 + Phenformin; first compound 0.08 µM) is reported as 0.321, the relative viability (AZ505 + Phenformin; first compound 0.253 µM) is reported as 0.292 and the relative viability (AZ505 + Phenformin; first compound 0.8 µM) is reported as 0.318. The relative viability (AZ505 + Phenformin; first compound 2.53 µM) was 0.381, the relative viability (AZ505 + Phenformin; first compound 8 µM) was 0.378 and the relative viability (AZ505 + Trametinib; first compound 0.08 µM) was 0.714. It also gave a relative viability (AZ505 + Trametinib; first compound 0.253 µM) of 0.625, a relative viability (AZ505 + Trametinib; first compound 0.8 µM) of 0.604 and a relative viability (AZ505 + Trametinib; first compound 2.53 µM) of 0.669. It also gave a relative viability (AZ505 + Trametinib; first compound 8 µM) of 0.69, a relative viability (AZ505 + Decitabine; first compound 0.08 µM) of 0.73 and a relative viability (AZ505 + Decitabine; first compound 0.253 µM) of 0.674. The relative viability (AZ505 + Decitabine; first compound 0.8 µM) was 0.707, the relative viability (AZ505 + Decitabine; first compound 2.53 µM) was 0.751 and the relative viability (AZ505 + Decitabine; first compound 8 µM) was 0.702.
In the case of SW 900, the relative viability (AZ505 + Phenformin; first compound 0.08 µM) is reported as 0.618, the relative viability (AZ505 + Phenformin; first compound 0.253 µM) is reported as 0.522 and the relative viability (AZ505 + Phenformin; first compound 0.8 µM) is reported as 0.588. The relative viability (AZ505 + Phenformin; first compound 2.53 µM) was 0.695, the relative viability (AZ505 + Phenformin; first compound 8 µM) was 0.647 and the relative viability (AZ505 + Trametinib; first compound 0.08 µM) was 0.554. For the same cell line, the relative viability (AZ505 + Trametinib; first compound 0.253 µM) was 0.846, the relative viability (AZ505 + Trametinib; first compound 0.8 µM) was 0.682 and the relative viability (AZ505 + Trametinib; first compound 2.53 µM) was 0.72. The relative viability (AZ505 + Trametinib; first compound 8 µM) was 0.813, the relative viability (AZ505 + Decitabine; first compound 0.08 µM) was 0.537 and the relative viability (AZ505 + Decitabine; first compound 0.253 µM) was 0.545. The relative viability (AZ505 + Decitabine; first compound 0.8 µM) was 0.419, the relative viability (AZ505 + Decitabine; first compound 2.53 µM) was 0.462 and the relative viability (AZ505 + Decitabine; first compound 8 µM) was 0.489.
